In brackets after ≈: the same amount, converted by molar mass.
These compounds were tested on Staphylococcus aureus (assay: Antimicrobial activity against Staphylococcus aureus). Settings: not given.
Assay type: functional

| MIC [mg/L] | Structure (SMILES) |
| --- | --- |
| 6.25 to 100 (≈ 19.5 to 312 µM) | Cc1ccc2c(c1)cc(/C=C/C(=O)c1cccs1)c1nnnn12 |
| 6.25 to 100 (≈ 18.1 to 290 µM) | COc1ccc(C(=O)/C=C/c2cc3cc(C)ccc3n3nnnc23)cc1 |
| 6.25 to 100 (≈ 17.9 to 287 µM) | Cc1ccc2cc(/C=C/C(=O)c3ccc(Cl)cc3)c3nnnn3c2c1 |
| 6.25 to 100 (≈ 19.8 to 317 µM) | Cc1ccc2cc(/C=C/C(=O)c3ccccn3)c3nnnn3c2c1 |

Each compound was assayed on Pseudomonas aeruginosa (assay: Antimicrobial activity against Pseudomonas aeruginosa). Settings: not given.
Assay type: functional

| MIC [mg/L] | Structure (SMILES) |
| --- | --- |
| 6.25 to 100 (≈ 19.5 to 312 µM) | Cc1ccc2c(c1)cc(/C=C/C(=O)c1cccs1)c1nnnn12 |
| 6.25 to 100 (≈ 18.1 to 290 µM) | COc1ccc(C(=O)/C=C/c2cc3cc(C)ccc3n3nnnc23)cc1 |
| 6.25 to 100 (≈ 17.9 to 287 µM) | Cc1ccc2cc(/C=C/C(=O)c3ccc(Cl)cc3)c3nnnn3c2c1 |
| 6.25 to 100 (≈ 19.8 to 317 µM) | Cc1ccc2cc(/C=C/C(=O)c3ccccn3)c3nnnn3c2c1 |

The compounds below were run on Bacillus subtilis (assay: Antimicrobial activity against Bacillus subtilis assessed as zone of inhibition at 50 ug/ml). Settings: read-out: IZ.
Assay type: functional

| Structure (SMILES) | zone of inhibition at 50 µg/mL [mm] |
| --- | --- |
| c1ccc(-c2nnnn2-c2ccccn2)cc1 | 10 to 24 |
| Clc1cccc(-c2nnnn2-c2ccccn2)c1Cl | 10 to 24 |
| Brc1ccc(-n2nnnc2-c2cccnc2)cc1 | 10 to 22 |
| Clc1ccc(-c2nnnn2-c2ccccn2)cc1 | 10 to 24 |
| COc1ccc(-n2nnnc2-c2cccnc2)cc1 | 10 to 22 |
| Cc1ccc(-n2nnnc2-c2cccnc2)cc1 | 10 to 22 |
| COc1ccc(-c2nnnn2-c2ccccn2)cc1 | 16 to 24 |
| Clc1ccccc1-c1nnnn1-c1ccccn1 | 10 to 24 |
| O=[N+]([O-])c1ccc(-n2nnnc2-c2cccnc2)cc1 | 10 to 22 |
| O=[N+]([O-])c1cc(-c2nnnn2-c2ccccn2)cc([N+](=O)[O-])c1 | 10 to 24 |
| Clc1ccccc1-n1nnnc1-c1cccnc1 | 10 to 22 |
| Brc1cccc(-c2nnnn2-c2ccccn2)c1 | 10 to 24 |
| Clc1ccc(-n2nnnc2-c2cccnc2)cc1 | 10 to 22 |
| O=[N+]([O-])c1ccccc1-n1nnnc1-c1cccnc1 | 10 to 22 |
| COc1ccccc1-n1nnnc1-c1cccnc1 | 10 to 22 |

What follows are compounds tested on Escherichia coli (assay: Antimicrobial activity against Escherichia coli). Settings: not given.
Assay type: functional

| MIC [mg/L] | Structure (SMILES) |
| --- | --- |
| 6.25 to 100 (≈ 19.5 to 312 µM) | Cc1ccc2c(c1)cc(/C=C/C(=O)c1cccs1)c1nnnn12 |
| 6.25 to 100 (≈ 18.1 to 290 µM) | COc1ccc(C(=O)/C=C/c2cc3cc(C)ccc3n3nnnc23)cc1 |
| 6.25 to 100 (≈ 17.9 to 287 µM) | Cc1ccc2cc(/C=C/C(=O)c3ccc(Cl)cc3)c3nnnn3c2c1 |
| 6.25 to 100 (≈ 19.8 to 317 µM) | Cc1ccc2cc(/C=C/C(=O)c3ccccn3)c3nnnn3c2c1 |

These compounds were tested on Staphylococcus aureus (assay: Antimicrobial activity against Staphylococcus aureus assessed as zone of inhibition at 50 ug/ml). Settings: read-out: IZ.
Assay type: functional

| Structure (SMILES) | zone of inhibition at 50 µg/mL [mm] |
| --- | --- |
| c1ccc(-c2nnnn2-c2ccccn2)cc1 | 10 to 24 |
| Clc1cccc(-c2nnnn2-c2ccccn2)c1Cl | 10 to 24 |
| Brc1ccc(-n2nnnc2-c2cccnc2)cc1 | 10 to 22 |
| Clc1ccc(-c2nnnn2-c2ccccn2)cc1 | 10 to 24 |
| COc1ccc(-n2nnnc2-c2cccnc2)cc1 | 10 to 22 |
| Cc1ccc(-n2nnnc2-c2cccnc2)cc1 | 10 to 22 |
| COc1ccc(-c2nnnn2-c2ccccn2)cc1 | 16 to 24 |
| Clc1ccccc1-c1nnnn1-c1ccccn1 | 10 to 24 |
| O=[N+]([O-])c1ccc(-n2nnnc2-c2cccnc2)cc1 | 10 to 22 |
| O=[N+]([O-])c1cc(-c2nnnn2-c2ccccn2)cc([N+](=O)[O-])c1 | 10 to 24 |
| Clc1ccccc1-n1nnnc1-c1cccnc1 | 10 to 22 |
| Brc1cccc(-c2nnnn2-c2ccccn2)c1 | 10 to 24 |
| Clc1ccc(-n2nnnc2-c2cccnc2)cc1 | 10 to 22 |
| O=[N+]([O-])c1ccccc1-n1nnnc1-c1cccnc1 | 10 to 22 |
| COc1ccccc1-n1nnnc1-c1cccnc1 | 10 to 22 |

What follows are compounds tested on Escherichia coli (assay: Antimicrobial activity against Escherichia coli assessed as zone of inhibition at 50 ug/ml). Settings: read-out: IZ.
Assay type: functional

| Structure (SMILES) | zone of inhibition at 50 µg/mL [mm] |
| --- | --- |
| c1ccc(-c2nnnn2-c2ccccn2)cc1 | 10 to 24 |
| Clc1cccc(-c2nnnn2-c2ccccn2)c1Cl | 10 to 24 |
| Brc1ccc(-n2nnnc2-c2cccnc2)cc1 | 10 to 22 |
| Clc1ccc(-c2nnnn2-c2ccccn2)cc1 | 10 to 24 |
| COc1ccc(-n2nnnc2-c2cccnc2)cc1 | 10 to 22 |
| Cc1ccc(-n2nnnc2-c2cccnc2)cc1 | 10 to 22 |
| COc1ccc(-c2nnnn2-c2ccccn2)cc1 | 16 to 24 |
| Clc1ccccc1-c1nnnn1-c1ccccn1 | 10 to 24 |
| O=[N+]([O-])c1ccc(-n2nnnc2-c2cccnc2)cc1 | 10 to 22 |
| O=[N+]([O-])c1cc(-c2nnnn2-c2ccccn2)cc([N+](=O)[O-])c1 | 10 to 24 |
| Clc1ccccc1-n1nnnc1-c1cccnc1 | 10 to 22 |
| Brc1cccc(-c2nnnn2-c2ccccn2)c1 | 10 to 24 |
| Clc1ccc(-n2nnnc2-c2cccnc2)cc1 | 10 to 22 |
| O=[N+]([O-])c1ccccc1-n1nnnc1-c1cccnc1 | 10 to 22 |
| COc1ccccc1-n1nnnc1-c1cccnc1 | 10 to 22 |

Each compound was assayed on Aspergillus fumigatus (assay: Antifungal activity against Aspergillus fumigatus assessed as zone of inhibition at 50 ug/ml). Settings: read-out: IZ.
Assay type: functional

| Structure (SMILES) | zone of inhibition at 50 µg/mL [mm] |
| --- | --- |
| c1ccc(-c2nnnn2-c2ccccn2)cc1 | 10 to 24 |
| Clc1cccc(-c2nnnn2-c2ccccn2)c1Cl | 10 to 24 |
| Brc1ccc(-n2nnnc2-c2cccnc2)cc1 | 10 to 22 |
| Clc1ccc(-c2nnnn2-c2ccccn2)cc1 | 10 to 24 |
| COc1ccc(-n2nnnc2-c2cccnc2)cc1 | 10 to 22 |
| Cc1ccc(-n2nnnc2-c2cccnc2)cc1 | 10 to 22 |
| COc1ccc(-c2nnnn2-c2ccccn2)cc1 | 16 to 24 |
| Clc1ccccc1-c1nnnn1-c1ccccn1 | 10 to 24 |
| O=[N+]([O-])c1ccc(-n2nnnc2-c2cccnc2)cc1 | 10 to 22 |
| O=[N+]([O-])c1cc(-c2nnnn2-c2ccccn2)cc([N+](=O)[O-])c1 | 10 to 24 |
| Clc1ccccc1-n1nnnc1-c1cccnc1 | 10 to 22 |
| Brc1cccc(-c2nnnn2-c2ccccn2)c1 | 10 to 24 |
| Clc1ccc(-n2nnnc2-c2cccnc2)cc1 | 10 to 22 |
| O=[N+]([O-])c1ccccc1-n1nnnc1-c1cccnc1 | 10 to 22 |
| COc1ccccc1-n1nnnc1-c1cccnc1 | 10 to 22 |

These compounds were tested on Candida albicans (assay: Antifungal activity against Candida albicans). Settings: not given.
Assay type: functional

| MIC [mg/L] | Structure (SMILES) |
| --- | --- |
| 6.25 to 100 (≈ 19.5 to 312 µM) | Cc1ccc2c(c1)cc(/C=C/C(=O)c1cccs1)c1nnnn12 |
| 6.25 to 100 (≈ 18.1 to 290 µM) | COc1ccc(C(=O)/C=C/c2cc3cc(C)ccc3n3nnnc23)cc1 |
| 6.25 to 100 (≈ 17.9 to 287 µM) | Cc1ccc2cc(/C=C/C(=O)c3ccc(Cl)cc3)c3nnnn3c2c1 |
| 6.25 to 100 (≈ 19.8 to 317 µM) | Cc1ccc2cc(/C=C/C(=O)c3ccccn3)c3nnnn3c2c1 |

Each compound was assayed on Aspergillus niger (assay: Antifungal activity against Aspergillus niger). Settings: not given.
Assay type: functional

| MIC [mg/L] | Structure (SMILES) |
| --- | --- |
| 6.25 to 100 (≈ 19.5 to 312 µM) | Cc1ccc2c(c1)cc(/C=C/C(=O)c1cccs1)c1nnnn12 |
| 6.25 to 100 (≈ 18.1 to 290 µM) | COc1ccc(C(=O)/C=C/c2cc3cc(C)ccc3n3nnnc23)cc1 |
| 6.25 to 100 (≈ 17.9 to 287 µM) | Cc1ccc2cc(/C=C/C(=O)c3ccc(Cl)cc3)c3nnnn3c2c1 |
| 6.25 to 100 (≈ 19.8 to 317 µM) | Cc1ccc2cc(/C=C/C(=O)c3ccccn3)c3nnnn3c2c1 |

The compounds below were run on Pseudomonas aeruginosa (assay: Antimicrobial activity against Pseudomonas aeruginosa assessed as zone of inhibition at 50 ug/ml). Settings: read-out: IZ.
Assay type: functional

| Structure (SMILES) | zone of inhibition at 50 µg/mL [mm] |
| --- | --- |
| c1ccc(-c2nnnn2-c2ccccn2)cc1 | 10 to 24 |
| Clc1cccc(-c2nnnn2-c2ccccn2)c1Cl | 10 to 24 |
| Brc1ccc(-n2nnnc2-c2cccnc2)cc1 | 10 to 22 |
| Clc1ccc(-c2nnnn2-c2ccccn2)cc1 | 10 to 24 |
| COc1ccc(-n2nnnc2-c2cccnc2)cc1 | 10 to 22 |
| Cc1ccc(-n2nnnc2-c2cccnc2)cc1 | 10 to 22 |
| COc1ccc(-c2nnnn2-c2ccccn2)cc1 | 16 to 24 |
| Clc1ccccc1-c1nnnn1-c1ccccn1 | 10 to 24 |
| O=[N+]([O-])c1ccc(-n2nnnc2-c2cccnc2)cc1 | 10 to 22 |
| O=[N+]([O-])c1cc(-c2nnnn2-c2ccccn2)cc([N+](=O)[O-])c1 | 10 to 24 |
| Clc1ccccc1-n1nnnc1-c1cccnc1 | 10 to 22 |
| Brc1cccc(-c2nnnn2-c2ccccn2)c1 | 10 to 24 |
| Clc1ccc(-n2nnnc2-c2cccnc2)cc1 | 10 to 22 |
| O=[N+]([O-])c1ccccc1-n1nnnc1-c1cccnc1 | 10 to 22 |
| COc1ccccc1-n1nnnc1-c1cccnc1 | 10 to 22 |

What follows are compounds tested on Candida albicans (assay: Antifungal activity against Candida albicans assessed as zone of inhibition at 50 ug/ml). Settings: read-out: IZ.
Assay type: functional

| Structure (SMILES) | zone of inhibition at 50 µg/mL [mm] |
| --- | --- |
| c1ccc(-c2nnnn2-c2ccccn2)cc1 | 10 to 24 |
| Clc1cccc(-c2nnnn2-c2ccccn2)c1Cl | 10 to 24 |
| Brc1ccc(-n2nnnc2-c2cccnc2)cc1 | 10 to 22 |
| Clc1ccc(-c2nnnn2-c2ccccn2)cc1 | 10 to 24 |
| COc1ccc(-n2nnnc2-c2cccnc2)cc1 | 10 to 22 |
| Cc1ccc(-n2nnnc2-c2cccnc2)cc1 | 10 to 22 |
| COc1ccc(-c2nnnn2-c2ccccn2)cc1 | 16 to 24 |
| Clc1ccccc1-c1nnnn1-c1ccccn1 | 10 to 24 |
| O=[N+]([O-])c1ccc(-n2nnnc2-c2cccnc2)cc1 | 10 to 22 |
| O=[N+]([O-])c1cc(-c2nnnn2-c2ccccn2)cc([N+](=O)[O-])c1 | 10 to 24 |
| Clc1ccccc1-n1nnnc1-c1cccnc1 | 10 to 22 |
| Brc1cccc(-c2nnnn2-c2ccccn2)c1 | 10 to 24 |
| Clc1ccc(-n2nnnc2-c2cccnc2)cc1 | 10 to 22 |
| O=[N+]([O-])c1ccccc1-n1nnnc1-c1cccnc1 | 10 to 22 |
| COc1ccccc1-n1nnnc1-c1cccnc1 | 10 to 22 |
